The values that follow come from patent US20040258771A1 (priority 2001, published 2004).

One data set has as its system tumor growth. Particulars: has been shown (prior knowledge); cited from earlier work.
For the next data set, the system named is mice. Particulars: cited from earlier work.
Another data set concerns Ovarian cancer cells. Kind of data set: Human cancer cell assessment, ovarian. The data set is classed as cell-based. An excerpt: As a quick secondary screen, the additive alone and in combination with the target drug was examined in these human cancer cell lines. The results of TK-211 are shown as a specific example.

In the case of `NCCCNCCSP(=O)(O)O` [Amifostine], in the data set with tumor growth, the “effect on cisplatin efficacy” value is reported as “slight impairment of cisplatin efficacy”. The “known reduction of cisplatin side effects” value with mice is “only to slightly reduce weight loss and hypothermia”.

`N.N.[Cl][Pt][Cl]` [Cisplatin, cis-diamine-dichloroplatinum (II)]: the Cell survival turned out to be 3% in the data set on Ovarian cancer cells (1 μg/ml) and 1% with Ovarian cancer cells (2 μg/ml).
